Source: patent US20080287396A1, “Phosphonated Fluoroquinolones, Antibacterial Analogs Thereof, and Methods for the Prevention and Treatment of Bone and Joint Infections” (TARGANTA THERAPEUTICA INC., priority 2005, published 2008)
Values after ≈ are worked out from the molar mass of the structure shown. Like-named read-outs stand apart in the source and are kept apart here.

Tests used:
[1] = Levels of bisphosphonated prodrugs in rat tibia in vivo; conditions: for half-life: female, CD, tibia (bone); for concentration of prodrug present in bone, in words: single IV bolus (49: 18.8; 52: 15.8; 54: 17.4 mg/kg)
Description: In order to investigate the bone binding and rate of decomposition of bisphosphonated fluoroquinolone prodrugs in vivo, rats were treated with bisphosphonated moxifloxacin prodrug 52 or bisphosphonated gatifloxacin prodrug 49 or 54 and the drug content of their tibiae was analyzed at different time points after injection. Female CD rats (age, 57 to 70 days; n=5/group; Charles River, St-Constant, Canada) were administered a single bolus intravenous (tail vein) dose of compound 49, 52 or 54 (dissolved in 0.85% NaCl) at respectively 18.8 mg/kg (equivalent to 9 mg/kg of 15), 15.8 mg/kg (equivalent to 10 mg/kg of 3) and 17.4 mg/kg (equivalent to 10 mg/kg of 15) of body weight. Animals were humanely sacrificed at specified time points after i.v. dosing to evaluate the levels of 49, 52 or 54 in the bone. Tibiae were recovered by dissection, cleaned from soft tissues, ground using a metal ball mill (Retsch MM301™) and kept at −80° C. before determination of the drug concentration of the bone.
The experimentally obtained ground bone powder was suspended in 5% formic acid in methanol (500 mg/1.6 mL). The mixture was vortexed for 10 min and centrifuged for 10 min at 10 000 g. The resulting pellet was dried, weighed and used for the determination of the amount of bisphosphonated prodrug.
For the dosage of the prodrug in the tibia, the standards, QCs (Quality Controls) and blanks were prepared (in duplicate) as follows: to 20 mg of dry blank tibia powder were added a spiking solution (10 μL) of prodrug and 990 μL of buffer (0.1M tris-HCl, pH 7, 0.15M NaCl); the mixture was vortexed for 10 min (RT), centrifuged for 15 min at 10 000 g (RT), the supernatant discarded and the pellet kept for the cleavage procedure. The range of the standards (6 levels) was from 0.05 to 10 μM and the QC levels were 0.075, 0.75 and 7.5 μM.
To each standard, QC, blank and experimental sample tibia bone pellet (20 mg of dry weight) was added 500 μL 6N NaOH for the cleavage of the prodrug into the drug (moxifloxacin 3 or gatifloxacin 15). After an incubation at 50° C. for 1 hour (for 49) or 2 hours (for 52 and 54), the mixture was acidified with 6N HCl (500 μL) and the internal standard (gatifloxacin 15 for 52 and moxifloxacin 3 for 49 and 54) was added. After a centrifugation of 15 min at 10 000 g (RT), the supernatant was extracted on a Strata™ cartridge (30 mg/l ml), using 100% methanol as the eluent. The eluent was evaporated to dryness under a stream of argon and the dried residue was reconstituted in 200 μL of the mobile phase used in the LC/MS analysis by vortexing for 15 min. After centrifugation for 15 min at 10 000 g, 20 μL of the supernatant was injected into the LC/MS analyser.
The quantity of drug resulting from the cleavage of the prodrug was analyzed on an Agilent 1100™ series LC/MSD trap. The supernatant was injected into a Zorbax™ SB-Aq column (2×30 mm, 3.5μ), using 0.1% formic acid in water: 0.1% formic acid in acetonitrile (85:15) as the mobile phase at a flow rate of 0.3 mL/min. […] The detected ions were determined in single reaction mode (SRM).
For the determination of 52, moxifloxacin 3 was analyzed for m/z 402.2 and the internal standard (gatifloxacin 15) for m/z 376.1→332.1.
For the determination of 49 and 54, gatifloxacin 15 was analyzed for m/z 376.1→332.1 and the internal standard (moxifloxacin 3) was analyzed for m/z 402.2.

[2] = Regeneration of drug from bone powder-bound prodrug; format: in vitro ADME; conditions: PBS vs serum
[3] = system: S. aureus strains ATCC13709 and RN4220; test: microbe, parasite or virus in culture; format: cell-based; conditions: Staphylococcus aureus, ATCC13709; CAMHB, 37° C., 18 h; data not shown; read-out: minimum inhibitory concentration (MIC)
Description: Susceptibility of S. aureus strains ATCC13709 and RN4220 to the commercial antibiotics and synthesized compounds was determined by following the guidelines set by the Clinical and Laboratory Standards Institute (formerly the National Committee for Clinical Laboratory Standards) (M26-A). Compounds were diluted two-fold serially in DMSO and transferred to cation-adjusted Mueller Hinton broth (CAMHB; Becton Dickinson). 50 μL of compounds diluted in CAMHB was mixed with 100 μL of bacteria diluted in CAMHB in 96-well microtiter plates. The final number of micro-organisms in the assay was 5×10^5 c.f.u. per mL and the final concentration of DMSO in the assay was 1.25%. Assays were set up in duplicate and incubated at 37° C. for 18 h. The concentration of compound that inhibited visible growth was reported as the minimum inhibitory concentration (MIC).

[4] = rat, single IV bolus (52: 15.8 mg/kg; 54: 17.4 mg/kg), 7-28 days after injection, read-out: half-life of prodrug in bone (tibia) (converted)

Structure (SMILES)	half-life ([1]; rat tibia, IV bolus 15.8 mg/kg, 5 min to 24 h, read-out: half-life for the accumulation process in bone) [days]	half-life [1, 4] [days]	concentration of prodrug present in bone, in words ([1]; rat tibia)	effect of the medium (presence or absence of serum) on regeneration rate [2]	MIC [3] [µg/mL]
COc1c(N2C[C@@H]3CCCN[C@@H]3C2)c(F)cc2c(=O)c(C(=O)OCC(=O)NC(P(=O)(O)O)P(=O)(O)O)cn(C3CC3)c12 [Compound 52, (1,1-Bisphosphonomethylcarbamoyl)methyl 1-cyclopropyl-6-fluoro-1,4-dihydro-7-((4aS,7aS)-octahydropyrrolo[3,4-b]pyridin-6-yl)-8-methoxy-4-oxoquinoline-3-carboxylate]	< 0.0417	20	high concentrations	fairly similar rates	–
COc1c(N2CCNC(C)C2)c(F)cc2c(=O)c(C(=O)OCC(=O)NC(P(=O)(O)O)P(=O)(O)O)cn(C3CC3)c12 (centres unmarked) [Compound 54, (1,1-Bisphosphonomethylcarbamoyl)methyl 7-(3-methylpiperazin-1-yl)-1-cyclopropyl-6-fluoro-1,4-dihydro-8-methoxy-4-oxoquinoline-3-carboxylate]	–	21	high concentrations	rate deceleration	4 to 16 (≈ 6.6 to 26.4 µM)
